Test results taken from patent US6914045B2, “Glycopeptide antibiotics” (Wyeth Holdings Corporation, priority 2001, dated 2005).
Values after ≈ are worked out from the molar mass of the structure shown.

How the values were obtained:
Assay in all cases: in vitro antibacterial evaluation, MIC by broth dilution
Type in all cases: cell-based
Enterococcus sp. = conditions: broth dilution, 18 hours at 35° C.
Procedure, shortened: (§1)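 Following National Committee for Clinical Laboratory Standards recommendations (M7-A2), susceptibility was measured by dilution in Muller-Hinton II […]. Bacteria were seeded at 5×10^5 CFU/mL against compound concentrations from 64 down to 0.06 μg/mL.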

Escherichia coli = conditions: 18 hours at 35° C.
Procedure, shortened: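 Read-out: the lowest concentration at which the test strain fails to grow. Serial dilutions (64-0.06 μg/mL) in Muller-Hinton II […], 5×10^5 CFU/mL inoculum, NCCLS M7-A2 procedure.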

Staphylococcus sp. = conditions: broth dilution, 18 hours at 35° C.
Procedure, shortened: as §1

Streptococcus sp. = conditions: broth dilution, 18 hours at 35° C.
Procedure, shortened: as §1

Q: What does the source list for CC(C)C(=O)OCC1OC(OC2C(CO)OC(Oc3ccc(CC4NC(=O)C(Cc5ccccc5)NC(=O)CNC(=O)C(CO)NC(=O)C(C(O)C5CNC(=N)N5C5OC(CO)C(O)C(O)C5O)NC(=O)C(C(O)C5CNC(=N)N5)NC4=O)cc3)C(O)C2O)C(O)C(O)C1O (centres unmarked) [Example 283a, Cyclo[glycylphenylalanyl-O-[4-O-[6-O-(2-methylpropanoyl)-hexopyranosyl]hexopyranosyl]tyrosyl-3-(2-iminoimidazolidin-4-yl)seryl-3-(3-hexopyranosyl-2-iminoimidazolidin-4-yl)seryliseryl]]?
A: MIC Enterococcus avium (GC 4558) (Enterococcus sp.; Enterococcus avium (GC 4558)): 128 µg/mL (≈ 94.7 µM); MIC Enterococcus faecalis (ATCC 29212) (Enterococcus sp.; Enterococcus faecalis (ATCC 29212)): >128 µg/mL; MIC Enterococcus faecalis (GC 4553) (Enterococcus sp.; Enterococcus faecalis (GC 4553)): >128 µg/mL; MIC Enterococcus faecalis (GC 4554) (Enterococcus sp.; Enterococcus faecalis (GC 4554)): >128 µg/mL; MIC Enterococcus faecalis (GC 6189) (Enterococcus sp.; Enterococcus faecalis (GC 6189)): >128 µg/mL; MIC Enterococcus faecium (GC 2243) (Enterococcus sp.; Enterococcus faecium (GC 2243)): >128 µg/mL; MIC Enterococcus faecium (GC 4556) (Enterococcus sp.; Enterococcus faecium (GC 4556)): >128 µg/mL; MIC Enterococcus faecium (GC 4557) (Enterococcus sp.; Enterococcus faecium (GC 4557)): 64 µg/mL (≈ 47.4 µM); MIC Enterococcus faecalis (ATCC 29212) (Enterococcus sp.; strain ATCC 29212): >128 µg/mL; MIC Enterococcus faecalis (GC 2242) (Enterococcus sp.; strain GC 2242): 128 µg/mL (≈ 94.7 µM); MIC Enterococcus faecium (GC 2243) (Enterococcus sp.; strain GC 2243): >128 µg/mL; MIC Enterococcus faecalis (GC 2691) (Enterococcus sp.; strain GC 2691): >128 µg/mL; MIC Enterococcus faecalis (GC 3059) (Enterococcus sp.; strain GC 3059): >128 µg/mL; MIC Enterococcus faecalis (GC 4552) (Enterococcus sp.; strain GC 4552): >128 µg/mL; MIC Enterococcus faecalis (GC 4553) (Enterococcus sp.; strain GC 4553): >128 µg/mL; MIC Enterococcus faecalis (GC 4554) (Enterococcus sp.; strain GC 4554): >128 µg/mL; MIC Enterococcus faecium (GC 4556) (Enterococcus sp.; strain GC 4556): >128 µg/mL; MIC Enterococcus faecium (GC 4557) (Enterococcus sp.; strain GC 4557): 64 µg/mL (≈ 47.4 µM); MIC Enterococcus avium (GC 4558) (Enterococcus sp.; strain GC 4558): 128 µg/mL (≈ 94.7 µM); MIC Enterococcus faecalis (GC 6189) (Enterococcus sp.; strain GC 6189): >128 µg/mL; MIC Escherichia coli (ATCC 25922) (Escherichia coli; Escherichia coli (ATCC 25922)): 128 µg/mL (≈ 94.7 µM); MIC Escherichia coli (GC 4559) (Escherichia coli; Escherichia coli (GC 4559)): >128 µg/mL; MIC Escherichia coli (GC 4560) (Escherichia coli; Escherichia coli (GC 4560)): 32 µg/mL (≈ 23.7 µM); MIC Coagulase Negative Staphylococcus (GC 4547) (Staphylococcus sp.): 64 µg/mL (≈ 47.4 µM); MIC Coagulase Negative Staphylococcus (GC 4548) (Staphylococcus sp.): 64 µg/mL (≈ 47.4 µM); MIC Coagulase Negative Staphylococcus (GC 4549) (Staphylococcus sp.): 32 µg/mL (≈ 23.7 µM); MIC Coagulase Negative Staphylococcus (GC 4551) (Staphylococcus sp.): 64 µg/mL (≈ 47.4 µM); MIC Staphylococcus aureus (ATCC 29213) (Staphylococcus sp.): 64 µg/mL (≈ 47.4 µM); MIC Staphylococcus aureus (GC 1131) (Staphylococcus sp.): 64 µg/mL (≈ 47.4 µM); MIC Staphylococcus aureus (GC 3051) (Staphylococcus sp.): 64 µg/mL (≈ 47.4 µM); MIC Staphylococcus aureus (GC 3053) (Staphylococcus sp.): 128 µg/mL (≈ 94.7 µM); MIC Staphylococcus aureus (GC 4541) (Staphylococcus sp.): 64 µg/mL (≈ 47.4 µM); MIC Staphylococcus aureus (GC 4542) (Staphylococcus sp.): 64 µg/mL (≈ 47.4 µM); MIC Staphylococcus aureus (GC 4544) (Staphylococcus sp.): 64 µg/mL (≈ 47.4 µM); MIC Staphylococcus aureus (GC 4545) (Staphylococcus sp.): 64 µg/mL (≈ 47.4 µM); MIC Staphylococcus aureus-SMITH (GC 4543) (Staphylococcus sp.): 64 µg/mL (≈ 47.4 µM); MIC Staphylococcus haemolyticus (GC 4546) (Staphylococcus sp.): 64 µg/mL (≈ 47.4 µM); MIC Staphylococcus aureus (ATCC 29213) (Staphylococcus sp.; strain ATCC 29213): 64 µg/mL (≈ 47.4 µM); MIC Staphylococcus aureus (GC 1131) (Staphylococcus sp.; strain GC 1131): 64 µg/mL (≈ 47.4 µM); MIC Staphylococcus aureus (GC 3051) (Staphylococcus sp.; strain GC 3051): 64 µg/mL (≈ 47.4 µM); MIC Staphylococcus aureus (GC 3053) (Staphylococcus sp.; strain GC 3053): 128 µg/mL (≈ 94.7 µM); MIC Staphylococcus aureus (GC 4541) (Staphylococcus sp.; strain GC 4541): 64 µg/mL (≈ 47.4 µM); MIC Staphylococcus aureus (GC 4542) (Staphylococcus sp.; strain GC 4542): 64 µg/mL (≈ 47.4 µM); MIC Staphylococcus aureus (GC 4544) (Staphylococcus sp.; strain GC 4544): 64 µg/mL (≈ 47.4 µM); MIC Staphylococcus aureus (GC 4545) (Staphylococcus sp.; strain GC 4545): 64 µg/mL (≈ 47.4 µM); MIC Staphylococcus haemolyticus (GC 4546) (Staphylococcus sp.; strain GC 4546): 64 µg/mL (≈ 47.4 µM); MIC Coagulase Negative Staphylococcus (GC 4547) (Staphylococcus sp.; strain GC 4547): 64 µg/mL (≈ 47.4 µM); MIC Coagulase Negative Staphylococcus (GC 4548) (Staphylococcus sp.; strain GC 4548): 64 µg/mL (≈ 47.4 µM); MIC Coagulase Negative Staphylococcus (GC 4549) (Staphylococcus sp.; strain GC 4549): 32 µg/mL (≈ 23.7 µM); MIC Coagulase Negative Staphylococcus (GC 4551) (Staphylococcus sp.; strain GC 4551): 64 µg/mL (≈ 47.4 µM); MIC Staphylococcus aureus-SMITH (GC 4543) (Staphylococcus sp.; strain SMITH GC 4543): 64 µg/mL (≈ 47.4 µM); MIC Streptococcus pneumoniae (ATCC 6301) (Streptococcus sp.; strain ATCC 6301): 16 µg/mL (≈ 11.8 µM); MIC Streptococcus pneumoniae (GC 1894) (Streptococcus sp.; strain GC 1894): 16 µg/mL (≈ 11.8 µM); MIC Streptococcus pyogenes (GC 4563) (Streptococcus sp.; strain GC 4563): 64 µg/mL (≈ 47.4 µM); MIC Streptococcus agalactiae (GC 4564) (Streptococcus sp.; strain GC 4564): 64 µg/mL (≈ 47.4 µM); MIC Streptococcus pneumoniae (GC 4565) (Streptococcus sp.; strain GC 4565): 16 µg/mL (≈ 11.8 µM)
